From patent KR20230047805A, “알기나제 유래 펩타이드를 포함하는 심혈관 질환 예방 또는 치료용 조성물” (강원대학교산학협력단, priority 2021, dated 2023)

Experiments:
p32 단백질 [1] = target: T1, p32 단백질 (Homo sapiens, UniProt Q07021); assay: Mitochondrial fractionation and immunoblotting of p32 in HUVECs; type: cell-based; conditions: peptide 10 μM, 12 h, mitochondrial fraction
T1 construct: 펩타이드를 처리한 HUVECs을 1X SDS sample buffer로 lysis한 뒤; endogenous in cells; host or cells: HUVECs
T1 sequence (Q07021 74-282): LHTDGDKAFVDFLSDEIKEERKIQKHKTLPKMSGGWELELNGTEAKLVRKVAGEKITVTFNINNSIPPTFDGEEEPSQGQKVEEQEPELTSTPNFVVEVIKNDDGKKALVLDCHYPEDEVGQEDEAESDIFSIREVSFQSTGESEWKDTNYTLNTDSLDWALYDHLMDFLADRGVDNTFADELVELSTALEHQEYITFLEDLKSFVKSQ

ApoE-/-+HCD 생쥐 대동맥 절편 = assay: Vascular tension measurement of aortic segments of atherosclerosis model mice after i.v. peptide; type: in vivo, mouse
p32 단백질 [2] = target: T1, p32 단백질; assay: Western blot of p32 protein level in peptide-treated HUVECs; type: cell-based; conditions: 12 h
ApoE-/-+HCD 생쥐 대동맥 [3] = assay: NO measurement (DAF-FM fluorescence) in aorta of atherosclerosis model mice after i.v. peptide; type: in vivo, mouse; conditions: 0.25 mM/kg i.v. every second day, 5 injections in 10 days
ApoE-/-+HCD 생쥐 대동맥 [4] = assay: ROS measurement (DHE fluorescence) in aorta of atherosclerosis model mice after i.v. peptide; type: in vivo, mouse; conditions: 0.25 mM/kg i.v. every second day, 5 injections in 10 days
CaMKII = assay: Western blot of CaMKII phosphorylation in peptide-treated HUVECs; type: cell-based, human; conditions: peptide 10 μM, 12 h
p32 단백질 [5] = target: T1, p32 단백질; assay: p32 protein level under proteasome inhibition (MG132) in HUVECs, Western blot; type: cell-based; conditions: peptide 10 μM, 12 h
[6] = Tail-cuff blood pressure measurement (CODA) in wild-type mice after i.v. peptide; type: in vivo, mouse; conditions: WT mice, 0.25 mM/kg i.v. once daily, 4day
알기나제와 p32 단백질의 결합 = target: T2, 알기나제와 p32 단백질의 결합 (Homo sapiens, UniProt Q07021); assay: Co-immunoprecipitation: binding of arginase and p32 in HUVECs; type: cell-based; conditions: peptide 10 μM, 12 h, co-IP with p32 antibody
T2 construct: YDIQY 펩타이드를 처리한 HUVECs을 RIPA buffer를 이용하여 lysis하고; endogenous in cells; host or cells: HUVECs
T2 sequence (Q07021 74-282): T1 sequence (Q07021 74-282)

p32 단백질 [7] = target: T1, p32 단백질; assay: Co-immunoprecipitation: ubiquitination of p32 in HUVECs; type: cell-based; conditions: peptide 10 μM, 12 h, co-IP with p32 antibody
eNOS = assay: Western blot of eNOS phosphorylation (Ser1177, Thr495) in peptide-treated HUVECs; type: cell-based, human; conditions: peptide 10 μM, 12 h

Substance: YDIQY: penta-peptide of SEQ ID NO: 1 designed from the arginase/p32 binding site; p32 inhibiting activity (printed: Tyr Asp Ile Gln Tyr)
- mitochondrial p32 protein level (p32 단백질 [1]): 유의하게 감소
- Ach-dependent relaxation of aortic segments (ApoE-/-+HCD 생쥐 대동맥 절편; ApoE-/-+HCD mice, 0.25 mM/kg i.v. x5, Ach 10-9~10^-5 M): 정상 생쥐 수준만큼 회복되는
- PE-dependent contraction of aortic segments (ApoE-/-+HCD 생쥐 대동맥 절편; ApoE-/-+HCD mice, 0.25 mM/kg i.v. x5, PE 10-9~10^-5 M): 정상 생쥐 수준만큼 회복하는
- KCl contraction of aortic segments (ApoE-/-+HCD 생쥐 대동맥 절편; four groups compared, KCl 60 mM, 20 min): 차이가 없음
- SNP-dependent (endothelium-independent) relaxation of aortic segments (ApoE-/-+HCD 생쥐 대동맥 절편; four groups compared, SNP 10-10~10^-6 M): 차이가 없음
- p32 protein level (p32 단백질 [2]; peptide 10 μM, Western blot): 감소되었고
- cytoplasmic p32 protein level (p32 단백질 [2]; peptide 0.01, 0.1, 1, 10 μM): 농도 의존적으로 감소
- NO production in aorta (ApoE-/-+HCD 생쥐 대동맥 [3]): 정상 생쥐 수준만큼 회복
- ROS production in aorta (ApoE-/-+HCD 생쥐 대동맥 [4]): 정상 생쥐 수준만큼 회복
- CaMKII phosphorylation (activity) (CaMKII): 증가하였고
- p32 protein level (p32 단백질 [5]; with proteasome inhibitor MG132 10 μM, 24 h): 감소되지 않는
- p32 protein level (p32 단백질 [5]; without MG132): 감소하였지만
- 수축기 (systolic pressure) [6]: 유의하게 감소
- 이완기 (diastolic pressure) [6]: 유의하게 감소
- 평균 대동맥압 (mean aortic pressure) [6]: 유의하게 감소
- binding of p32 with arginase vs control (알기나제와 p32 단백질의 결합): 감소되어있는
- p32 ubiquitination vs control (p32 단백질 [7]): 증가되어
- eNOS Ser1177 (activating site) phosphorylation (eNOS): 증가되었으며
- eNOS Thr495 (inactivating site) phosphorylation (eNOS): 감소되는
